pIC50: −log10 of the molar value. Where a SMILES comes first, the peptide text is derived from it. Bridges are numbered along the chain shown (N, C = ends). [ ]: non-standard residue; d: D form. The star is where a group is joined. Phe(4-COOH) = N[C@@H](Cc1ccc(C(=O)O)cc1)C(=O)O; Bip = N[C@@H](Cc1ccc(-c2ccccc2)cc1)C(=O)O; 4Pal = N[C@@H](Cc1ccncc1)C(=O)O; Cha = N[C@@H](CC1CCCCC1)C(=O)O; Cit = NC(=O)NCCC[C@H](N)C(=O)O; Ahp(2) = CCCCC[C@H](N)C(=O)O; Carboxymethyl = O=C(O)C*; Nle = CCCC[C@H](N)C(=O)O; Orn = NCCC[C@H](N)C(=O)O; Dab = NCC[C@H](N)C(=O)O; Dap = NC[C@H](N)C(=O)O
Molecular target: T1, human PD-1 / PD-L1-Ig binding on Jurkat cell line over-expressing human PD-1 (Jurkat-PD-1) (Homo sapiens, UniProt Q15116)
T1 construct: expressed in transfected cells; host or cells: Jurkat
Test: Jurkat-PD-1 Cell Binding High-Content Screening Assay (CBA)
Assay type: cell-based
Details: Jurkat HPD1_PDL1 IC50, Jurkat-PD-1 cells, PE-labeled PD-L1-Ig 20 nM final
Method in brief: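 Binding of fluorescent PD-L1-Ig (phycoerythrin linked via the Ig tag, 20 nM final) to PD-1-overexpressing Jurkat cells was imaged after a 2 h, 37° C compound pretreatment and 1 hour ligand incubation.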

T1 sequence (Q15116 25-288): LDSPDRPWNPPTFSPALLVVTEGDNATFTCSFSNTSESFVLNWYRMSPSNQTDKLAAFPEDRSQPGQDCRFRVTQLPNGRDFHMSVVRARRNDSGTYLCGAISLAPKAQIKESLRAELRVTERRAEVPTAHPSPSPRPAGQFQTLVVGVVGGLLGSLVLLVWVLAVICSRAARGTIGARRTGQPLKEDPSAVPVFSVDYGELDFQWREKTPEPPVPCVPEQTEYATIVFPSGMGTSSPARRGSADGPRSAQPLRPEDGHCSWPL

SMILES	pIC50
CC(C)C[C@@H]1NC(=O)[C@H](Cc2c[nH]c3ccccc23)NC(=O)[C@H](CC(=O)O)NC(=O)[C@H](Cc2ccc(OCC(=O)O)cc2)NC(=O)[C@H](CN)NC(=O)CSC[C@@H](C(=O)NCC(N)=O)NC(=O)[C@H](CO)NC(=O)[C@H](C(C)C)NC(=O)[C@H](CC2CCCCC2)NC(=O)[C@H](CC(N)=O)NC(=O)[C@@H](CC(C)C)NC(=O)[C@H](CCCN)NC(=O)[C@H](C(C)C)NC(=O)[C@H](Cc2ccc(-c3ccccc3)cc2)NC1=O [Compound 1336] ({CH2CO}-[Dap]Y(Carboxymethyl)DWL[Bip]V[Orn][dL]N[Cha]VSCG-NH2; thioether N-14)	7.67

Same assay, conditions: Jurkat-PD-1 cells, PE-labeled PD-L1-Ig 20 nM final; read-out: Jurkat HPD1_PDL1 IC50

pIC50	SMILES
7.57	CC(C)C[C@@H]1NC(=O)[C@H](Cc2c[nH]c3ccccc23)NC(=O)[C@H](CC(=O)O)NC(=O)[C@H](Cc2ccc(O)cc2)NC(=O)[C@H](Cc2ccccc2)NC(=O)CSC[C@@H](C(=O)NCC(N)=O)NC(=O)[C@H](CO)NC(=O)[C@H](C(C)C)NC(=O)[C@H](CC2CCCCC2)NC(=O)[C@H](CC(N)=O)NC(=O)[C@@H](CC(C)C)NC(=O)[C@H](CCCN)NC(=O)[C@H](C(C)C)NC(=O)[C@H](Cc2ccc(-c3ccccc3)cc2)NC1=O [Compound 1334] ({CH2CO}-FYDWL[Bip]V[Orn][dL]N[Cha]VSCG-NH2; thioether N-14)
7.68	CC(C)C[C@@H]1NC(=O)[C@H](Cc2c[nH]c3ccccc23)NC(=O)[C@H](CC(=O)O)NC(=O)[C@H](Cc2ccc(C(=O)O)cc2)NC(=O)[C@H](Cc2ccc(OCC(=O)O)cc2)NC(=O)CSC[C@@H](C(=O)NCC(N)=O)NC(=O)[C@H](CO)NC(=O)[C@H](C(C)C)NC(=O)[C@H](CC2CCCCC2)NC(=O)[C@H](CC(N)=O)NC(=O)[C@@H](CC(C)C)NC(=O)[C@H](CCCN)NC(=O)[C@H](C(C)C)NC(=O)[C@H](Cc2ccc(-c3ccccc3)cc2)NC1=O [Compound 1335] ({CH2CO}-Y(Carboxymethyl)[Phe(4-COOH)]DWL[Bip]V[Orn][dL]N[Cha]VSCG-NH2; thioether N-14)
7.57	CC(C)C[C@@H]1NC(=O)[C@H](Cc2c[nH]c3ccccc23)NC(=O)[C@H](CC(=O)O)NC(=O)[C@H](Cc2ccncc2)NC(=O)[C@H](CN)NC(=O)CSC[C@@H](C(=O)NCC(N)=O)NC(=O)[C@H](CO)NC(=O)[C@H](C(C)C)NC(=O)[C@H](CC2CCCCC2)NC(=O)[C@H](CC(N)=O)NC(=O)[C@@H](CC(C)C)NC(=O)[C@H](CCCN)NC(=O)[C@H](C(C)C)NC(=O)[C@H](Cc2ccc(-c3ccccc3)cc2)NC1=O [Compound 1337] ({CH2CO}-[Dap][4Pal]DWL[Bip]V[Orn][dL]N[Cha]VSCG-NH2; thioether N-14)
7.42	CC(C)C[C@@H]1NC(=O)[C@H](Cc2c[nH]c3ccccc23)NC(=O)[C@H](CC(=O)O)NC(=O)[C@H](Cc2ccncc2)NC(=O)[C@H](Cc2ccc(OCC(=O)O)cc2)NC(=O)CSC[C@@H](C(=O)NCC(N)=O)NC(=O)[C@H](CO)NC(=O)[C@H](C(C)C)NC(=O)[C@H](CC2CCCCC2)NC(=O)[C@H](CC(N)=O)NC(=O)[C@@H](CC(C)C)NC(=O)[C@H](CCCN)NC(=O)[C@H](C(C)C)NC(=O)[C@H](Cc2ccc(-c3ccccc3)cc2)NC1=O [Compound 1338] ({CH2CO}-Y(Carboxymethyl)[4Pal]DWL[Bip]V[Orn][dL]N[Cha]VSCG-NH2; thioether N-14)
7.28	CCCC[C@@H]1NC(=O)[C@H](CC(N)=O)NC(=O)[C@@H](CC(C)C)NC(=O)[C@H](CCCN)NC(=O)[C@H](C(C)C)NC(=O)[C@H](Cc2ccc(-c3ccccc3)cc2)NC(=O)[C@H](CC(C)C)NC(=O)[C@H](Cc2c[nH]c3ccccc23)NC(=O)[C@H](CC(=O)O)NC(=O)[C@H](Cc2ccc(O)cc2)NC(=O)[C@H](Cc2ccccc2)NC(=O)CSC[C@@H](C(=O)NCC(N)=O)NC(=O)[C@H](CO)NC(=O)[C@H](C(C)C)NC1=O [Compound 1339] ({CH2CO}-FYDWL[Bip]V[Orn][dL]N[Nle]VSCG-NH2; thioether N-14)
7.66	CCCC[C@@H]1NC(=O)[C@H](CC(N)=O)NC(=O)[C@@H](CC(C)C)NC(=O)[C@H](CCCN)NC(=O)[C@H](C(C)C)NC(=O)[C@H](Cc2ccc(-c3ccccc3)cc2)NC(=O)[C@H](CC(C)C)NC(=O)[C@H](Cc2c[nH]c3ccccc23)NC(=O)[C@H](CC(=O)O)NC(=O)[C@H](Cc2ccc(C(=O)O)cc2)NC(=O)[C@H](Cc2ccc(OCC(=O)O)cc2)NC(=O)CSC[C@@H](C(=O)NCC(N)=O)NC(=O)[C@H](CO)NC(=O)[C@H](C(C)C)NC1=O [Compound 1340] ({CH2CO}-Y(Carboxymethyl)[Phe(4-COOH)]DWL[Bip]V[Orn][dL]N[Nle]VSCG-NH2; thioether N-14)
7.52	CCCC[C@@H]1NC(=O)[C@H](CC(N)=O)NC(=O)[C@@H](CC(C)C)NC(=O)[C@H](CCCN)NC(=O)[C@H](C(C)C)NC(=O)[C@H](Cc2ccc(-c3ccccc3)cc2)NC(=O)[C@H](CC(C)C)NC(=O)[C@H](Cc2c[nH]c3ccccc23)NC(=O)[C@H](CC(=O)O)NC(=O)[C@H](Cc2ccncc2)NC(=O)[C@H](Cc2ccc(OCC(=O)O)cc2)NC(=O)CSC[C@@H](C(=O)NCC(N)=O)NC(=O)[C@H](CO)NC(=O)[C@H](C(C)C)NC1=O [Compound 1343] ({CH2CO}-Y(Carboxymethyl)[4Pal]DWL[Bip]V[Orn][dL]N[Nle]VSCG-NH2; thioether N-14)
7.51	CC(C)C[C@H]1NC(=O)[C@H](CCCN)NC(=O)[C@H](CCCNC(N)=O)NC(=O)[C@H](Cc2ccc(-c3ccccc3)cc2)NC(=O)[C@H](C(C)C)NC(=O)[C@H](Cc2c[nH]c3ccccc23)NC(=O)[C@H](CC(=O)O)NC(=O)[C@H](Cc2ccc(OCC(=O)O)cc2)NC(=O)[C@H](CN)NC(=O)CSC[C@@H](C(=O)N[C@@H](C)C(N)=O)NC(=O)[C@H]([C@@H](C)O)NC(=O)[C@H](C(C)C)NC(=O)[C@H](Cc2ccccc2)NC(=O)[C@H](CCN)NC1=O [Compound 1344] ({CH2CO}-[Dap]Y(Carboxymethyl)DWV[Bip][Cit][Orn][dL][Dab]FVTCA-NH2; thioether N-14)
6.63	CC(C)C[C@H]1NC(=O)[C@H](CCCN)NC(=O)[C@H](CCCNC(N)=O)NC(=O)[C@H](Cc2ccc(-c3ccccc3)cc2)NC(=O)[C@H](C(C)C)NC(=O)[C@H](Cc2c[nH]c3ccccc23)NC(=O)[C@H](CC(=O)O)NC(=O)[C@H](Cc2ccc(OCC(=O)O)cc2)NC(=O)[C@H](CN)NC(=O)CSC[C@@H](C(=O)N[C@@H](C)C(N)=O)NC(=O)[C@H]([C@@H](C)O)NC(=O)[C@H](C(C)C)NC(=O)[C@H](Cc2ccncc2)NC(=O)[C@H](CCN)NC1=O [Compound 1345] ({CH2CO}-[Dap]Y(Carboxymethyl)DWV[Bip][Cit][Orn][dL][Dab][4Pal]VTCA-NH2; thioether N-14)
7.02	CC(C)C[C@H]1NC(=O)[C@H](CCCN)NC(=O)[C@H](CCCNC(N)=O)NC(=O)[C@H](Cc2ccc(-c3ccccc3)cc2)NC(=O)[C@H](C(C)C)NC(=O)[C@H](Cc2c[nH]c3ccccc23)NC(=O)[C@H](CC(=O)O)NC(=O)[C@H](Cc2ccc(OCC(=O)O)cc2)NC(=O)[C@H](CN)NC(=O)CSC[C@@H](C(=O)N[C@@H](C)C(N)=O)NC(=O)[C@H]([C@@H](C)O)NC(=O)[C@H](C(C)C)NC(=O)[C@H](Cc2ccc(O)cc2)NC(=O)[C@H](CCN)NC1=O [Compound 1346] ({CH2CO}-[Dap]Y(Carboxymethyl)DWV[Bip][Cit][Orn][dL][Dab]YVTCA-NH2; thioether N-14)
7.58	CCCCC[C@@H]1NC(=O)[C@H](CCN)NC(=O)[C@@H](CC(C)C)NC(=O)[C@H](CCCN)NC(=O)[C@H](CCCNC(N)=O)NC(=O)[C@H](Cc2ccc(-c3ccccc3)cc2)NC(=O)[C@H](C(C)C)NC(=O)[C@H](Cc2c[nH]c3ccccc23)NC(=O)[C@H](CC(=O)O)NC(=O)[C@H](Cc2ccc(OCC(=O)O)cc2)NC(=O)[C@H](CN)NC(=O)CSC[C@@H](C(=O)N[C@@H](C)C(N)=O)NC(=O)[C@H]([C@@H](C)O)NC(=O)[C@H](C(C)C)NC1=O [Compound 1347] ({CH2CO}-[Dap]Y(Carboxymethyl)DWV[Bip][Cit][Orn][dL][Dab][Ahp(2)]VTCA-NH2; thioether N-14)
7.40	CC(C)C[C@H]1NC(=O)[C@H](CCCN)NC(=O)[C@H](CCCNC(N)=O)NC(=O)[C@H](Cc2ccc(-c3ccccc3)cc2)NC(=O)[C@H](C(C)C)NC(=O)[C@H](Cc2c[nH]c3ccccc23)NC(=O)[C@H](CC(=O)O)NC(=O)[C@H](Cc2ccc(OCC(=O)O)cc2)NC(=O)[C@H](CN)NC(=O)CSC[C@@H](C(=O)N[C@@H](C)C(N)=O)NC(=O)[C@H]([C@@H](C)O)NC(=O)[C@H](C(C)C)NC(=O)[C@H](CCC2CCCCC2)NC(=O)[C@H](CCN)NC1=O [Compound 1348]
7.26	CC(C)C[C@H]1NC(=O)[C@H](CCCN)NC(=O)[C@H](CCCNC(N)=O)NC(=O)[C@H](Cc2ccc(-c3ccccc3)cc2)NC(=O)[C@H](C(C)C)NC(=O)[C@H](Cc2c[nH]c3ccccc23)NC(=O)[C@H](CC(=O)O)NC(=O)[C@H](Cc2ccc(OCC(=O)O)cc2)NC(=O)[C@H](CN)NC(=O)CSC[C@@H](C(=O)N[C@@H](C)C(N)=O)NC(=O)[C@H]([C@@H](C)O)NC(=O)[C@H](C(C)C)NC(=O)[C@H](Cc2ccccn2)NC(=O)[C@H](CCN)NC1=O [Compound 1349]
6.79	CC(C)C[C@H]1NC(=O)[C@H](CCCN)NC(=O)[C@H](CCCNC(N)=O)NC(=O)[C@H](Cc2ccc(-c3ccccc3)cc2)NC(=O)[C@H](C(C)C)NC(=O)[C@H](Cc2c[nH]c3ccccc23)NC(=O)[C@H](CC(=O)O)NC(=O)[C@H](Cc2ccc(OCC(=O)O)cc2)NC(=O)[C@H](CN)NC(=O)CSC[C@@H](C(=O)N[C@@H](C)C(N)=O)NC(=O)[C@H]([C@@H](C)O)NC(=O)[C@H](C(C)C)NC(=O)[C@H](Cc2cccnc2)NC(=O)[C@H](CCN)NC1=O [Compound 1350]

Source: patent US20250163104A1, “MACROCYCLIC IMMUNOMODULATORS” (priority 2021, published 2025)
